From article PMC11917140, “Mining the UniProtKB/Swiss‐Prot database for antimicrobial peptides” (Protein Science : A Publication of the Protein Society, 2025)
Where two headings read alike, the source gives them in different places. No end group written: not given here.

Columns and labels:
[1] = test system: porcine red blood cells (RBCs); assay: Hemolysis assay; assay type: cell-based, pig; conditions: 1% porcine RBCs in RPMI, 37°C 30–45 min, absorbance 415 nm, tested 1–128 μg/mL, 2% Triton-X100 = 100%; three independent experiments in duplicate, one maximum and one minimum data point dropped
Procedure: Hemolysis experiments were performed to evaluate the toxicity of the selected peptides to RBCs. Whole blood from healthy donor pigs was purchased from Lampire Biological Laboratories (Pipersville, PA, USA), and RBCs were washed and isolated by centrifugation using Roswell Park Memorial Institute (RPMI) medium (Life Technologies, Grand Island, NY, USA). Peptides were suspended and serially diluted from 1280 to 10 μg/mL using RPMI medium in a 96‐well polypropylene microtiter plate, and then combined with 100 μL of the 1% RBC solution, providing a final AMP testing range of 128 to 1 μg/mL. Plates were centrifuged after an incubation at 37°C for 30–45 min, and 1/2 volume from each supernatant was transferred to a new 96‐well plate. The absorbance of the wells was measured at 415 nm utilizing the Cytation 5 Cell Imaging Multimode Reader (BioTek, CA, USA), and the peptide concentration that lysed 50% of the RBCs (HC50) was used to determine the hemolytic activity. Absorbance readings from wells containing RBCs treated with 11 μL of a 2% Triton‐X100 solution or RPMI medium (AMP solvent‐only) were used to define 100% and 0% hemolysis, respectively. We note that all centrifugation steps were performed at 500× g for 5 min in an Allegra‐6R centrifuge (Beckman Coulter, CA, USA).

[2] = test system: Escherichia coli ATCC 25922; assay type: cell-based
Procedure: (§1) To measure the antimicrobial activity of our selected putative AMPs in vitro, broth microdilution assays were conducted to determine the minimum inhibitory and minimum bactericidal concentrations (MICs and MBCs, respectively), as outlined by the Clinical and Laboratory Standards Institute [CLSI] ([2015]). The adaptations for testing cationic AMPs, as described previously (Wiegand et al., [2008]), were incorporated. The selected peptides were tested against laboratory isolates of E. coli 25922 and S. aureus 29213, which were purchased from the American Type Culture Collection (ATCC; Manassas, VA, USA). Bacteria from frozen stocks were streaked onto nonselective Columbia blood agar with 5% sheep blood (Oxoid) and incubated for 18–24 h at 37°C. To ensure the uniform colony health before the assay, 2–4 colonies were streaked onto a new agar plate and incubated for another 18–24 h at 37°C on the next day. To create a standardized bacterial inoculum, isolated colonies were suspended in Mueller‐Hinton Broth (MHB; Sigma‐Aldrich, St. Louis, MO, USA). The suspension was adjusted to an optical density of 0.08–0.1 at 600 nm, which corresponds to a 0.5 McFarland standard of approximately 1–2 × 10^8 colony‐forming units (CFU)/mL. The inoculum was then diluted 1:250, resulting in a final concentration of 5 ± 3 × 10^5 CFU/mL. The target bacterial density was confirmed by measuring the total viability counts from the final tested inoculum.
(§2) The selected putative AMPs were purchased from and synthesized by GenScript (Piscataway, NJ, USA) in lyophilized format. The peptides were stored at −20°C and were suspended in sterile ultrapure water prior to testing. A two‐fold serial dilution of 1280 to 2.5 μg/mL was prepared in sterile 96‐well polypropylene microtiter plates (Greiner Bio‐One #650261, Kremsmünster, Austria). Then, 100 μL of the standardized bacterial inoculum was added to each well, resulting in a final AMP testing range of 128 to 0.25 μg/mL. The MIC values were determined as the lowest peptide concentration in which no visible bacterial growth was observed after a 20–24 h incubation at 37°C. To determine the MBC values, well contents of the MIC and the two adjacent wells containing the two‐ and four‐fold higher peptide concentrations were plated onto nonselective nutrient agar. The concentration in which 99.9% of the inoculum was killed after an incubation for 24 h at 37°C was reported as the MBC.
(§3) In our tests, we used Ranatuerin‐4—a known AMP from the American bullfrog (Goraya et al., [1998]), and an in‐house peptide [TKPKG]3 (OT15) as the positive and negative control peptides, respectively. We note that OT15 was truncated and derived from a negative control peptide [TKPKG]4 (OT20), not antimicrobial but sharing similar characteristics to AMPs, used in previous studies (Horváti et al., [2017]).

[3] = test system: Staphylococcus aureus ATCC 29213; assay type: cell-based
Procedure: as §1, §2, §3

[4] = broth microdilution (CLSI, adapted for cationic AMPs), MHB, 5 ± 3 × 10^5 CFU/mL, 20–24 h at 37°C, tested 0.25–128 μg/mL, range from three independent experiments in duplicate, one maximum and one minimum data point dropped
[5] = concentration killing 99.9% of inoculum, plated on nutrient agar, 24 h at 37°C, range from three independent experiments in duplicate, one maximum and one minimum data point dropped

Sequence | HC50 (concentration that lyses 50% of RBCs), porcine RBCs [1] | MIC, E. coli ATCC 25922 ([2]; ATCC 25922) | MBC, E. coli ATCC 25922 ([2]; ATCC 25922, 24 h) | MIC, S. aureus ATCC 29213 ([3]; ATCC 29213) | MBC, S. aureus ATCC 29213 ([3]; ATCC 29213, 24 h) | MIC, E. coli ATCC 25922 [2, 4] | MBC, E. coli ATCC 25922 [2, 5] | MIC, S. aureus ATCC 29213 [3, 4] | MBC, S. aureus ATCC 29213 [3, 5]
ILDKVRLWLARIRLNLLKR [PlVi1] | > 128 µg/mL |  |  |  |  |  |  |  | 
SYWWWGFHKNVIDRREAFYADLAEKKKAEN [CaGl1] |  | > 128 µg/mL | > 128 µg/mL | > 128 µg/mL | > 128 µg/mL |  |  |  | 
VMRSAGSRSSKR [OrSa6, putative AMP mined from UniProt Q5VRI5, Oryza sativa subsp. japonica] |  |  |  |  |  | > 128 µg/mL | > 128 µg/mL | > 128 µg/mL | > 128 µg/mL
VWEFFEAGAGLRASNASKKIYGVAKRFRR [DiVi1] |  | > 128 µg/mL | > 128 µg/mL | > 128 µg/mL | > 128 µg/mL |  |  |  | 
WIIQCWWRQVLEKLLAKRRR [HoSa4] |  |  |  | 64 to 128 µg/mL |  | 32 µg/mL | 32 µg/mL | 64 to 128 µg/mL | 
WLLVLQRGHRLASIKHVCQLSERKR [DaRe1] |  | 32 to 64 µg/mL | 32 to 64 µg/mL | > 128 µg/mL | > 128 µg/mL |  |  |  | 
YVSPVAIVKGLNIPL [Ovipin, reference compound] |  | > 128 µg/mL |  | > 128 µg/mL |  |  |  |  | 
